According to patent US7618623B2, “Hybrid adeno-retroviral vector for the transfection of cells” (priority 2000, dated 2009):
Read-outs that look alike come from different tables or passages of the source.

Experiments:
HSG cells [1] = assay: Cell death on fibronectin-coated poly-L-lactic acid disks (crystal violet staining, cell count); type: cell-based, human; conditions: for cell death: cells infected with AdLTR.CMV-tk (MOI of 10)
Method: Two-dimensional films of poly-L-lactic acid (Boehringer Ingelheim Inc., Winchester, Va.) were produced by melt processing polymer pellets between sheets of aluminum foil using a Carver press at 350° F. to create disks with diameters of 20-25 mm. The disks were sterilized using y-irradiation for ˜150 min with a dose of 20,000 Gy.
Disks were gently placed in each well of a 6-well tissue culture plate (Becton Dickinson, Franklin Lakes, N.J.) and immersed in phosphate-buffered saline (PBS; GibcoBRL, Grand Island, N.Y.) for 18 hours with 5 μg/ml fibronectin at 37° C. (Aframian et al., Tissue Engin. 6:209, 2000). Thereafter, the coated disks were blocked for 1 hr with bovine serum albumin (Calbiochem-Novabiochem Corp., La Jolla, Calif.) at 37° C. and then gently washed twice with PBS (Aframian et al., op. cit.). Cell suspensions (1×10^5 cells; 2 ml/well) were added in complete culture medium and incubated at 37° C. for an additional 18 hours. Thereafter, the medium was discarded, and 10 MOI of virus diluted in PBS was added for an additional 6 hr. Next, GCV diluted in medium was added, and after an additional 125 hr the disks were washed twice in PBS, then stained with 0.2% crystal violet in 20% ethanol for 20 min (Aframian et al., op. cit). The disks were then rinsed twice with PBS and examined under a light microscope using a 10× objective. Three randomly selected photomicrographs were obtained from each specimen using 200 ASA color slide film (Elite chrome, Kodak, Rochester, N.Y.). The slides were scanned to convert them to digital images and, using Adobe Photoshop®, three 200 μm^2 regions were randomly chosen from each field, and cell number was determined visually.
An artificial salivary gland device will have cells grown as a monolayer on a fibronectin-coated poly-L-lactic acid substratum (Aframian et al., Tissue Engin. 6:209, 2000), rather than on tissue culture plastic. Therefore, the ability of GCV to elicit HSG cell death when the cells were attached to poly-L-lactic acid disks pre-coated with 5 μg/ml of human fibronectin was determined. […] The GCV effect ranged from 40% cell death at 0.5 μM GCV to 95% cell death when the GCV concentration was 50 μM.

HSG cells [2] = assay: Trypan blue staining and manual cell counting on plastic; type: cell-based, human; conditions: cells infected with AdLTR.CMV-tk at a MOI of 10; 0.5, 5, 50 μM GCV
Excerpt: HSG cells were a generous gift from […].
To determine the surviving cell number under these growth conditions on a plastic substrate following GCV treatment, in separate experiments trypan blue staining was used as well as manual cell counting.

HSG cells [3] = system: HSG cells
Excerpt: HSG cells were a generous gift from […]. M. Sato (Tokushima University, Japan) (Shirasuna et al., Cancer 48:745, 1981) and were maintained in vitro as previously described (He et al., Pflugers Arch., 36:416, 1990). For the experiments presented herein, HSG cells were dispersed from semi-confluent plates using a solution of Versene 1:5000 in Hanks' balanced salt solution without calcium and magnesium (BioFluids, Rockville Md.). Cells were then resuspended in fresh media consisting of a 1:1 mixture of Eagle's Minimal Essential Medium, (Dulbecco's Modification) and Ham's F-12 supplemented with 2 mM glutamine (BioFluids), 10% fetal calf serum (Hyclone, Logan, Utah), and 100 units/ml penicillin, 100 μg/ml streptomycin and 2.5 μg/ml fungizone (BioFluids).
Cells were grown in 96-well culture plates at a density of 1×10^4 cells/well. […] Six hours after infection, GCV (Cytovene®, Syntex Laboratories, Inc., Palo Alto Calif.) was added to the media at concentrations of 0.5, 5, or 50 μM. After incubation for different time points, the sensitivity of cells to the GCV prodrug was evaluated using two separate methods, assaying either with the tetrazolium salt of 3-(4,5-dimethylthiazol-2-yl)-2,5-diphenyl […] bromide (MTT assay, Chemicon International Inc., Temecula, Calif.) or direct cell counting after trypan blue staining (Bio-Whittaker, Walkersville, Md.).
To assess the ability of the HSV-tk transgene to function in HSG cells, cell viability was studied on tissue culture plastic using the MTT assay. HSG cells were infected with different vector MOIs, and thereafter incubated with several concentrations of GCV (Candotti et al., Cancer Gene Ther., 7:574, 2000).

SMILES: Nc1nc(O)c2ncn(COC(CO)CO)c2n1 [GCV, ganciclovir]
- appearance of cell monolayers (HSG cells [1]; 50 μM GCV alone, no infection): appeared normal
- cells remaining on the disk (HSG cells [1]; AdLTR.CMV-tk at a MOI of 10 followed by 50 μM of GCV): loss of almost all of the cells
- cell death (HSG cells [1]; 0.5 μM GCV): 40%
- cell death (HSG cells [1]; 50 μM GCV): 95%
- decrease in number of viable cells compared with cells infected with 10 MOI alone (HSG cells [2]): up to 3 fold
- effect on HSG cell growth and viability (HSG cells [3]; GCV doses up to 50 μM, absence of AdLTR.CMV-tk infection): does not affect
- effect of GCV on viability (HSG cells [3]; cells infected with AdLTR.CMV-tk at a MOI of 1): without effect
- reduced viability compared to no GCV treatment (HSG cells [3]; cells infected with AdLTR.CMV-tk at a MOI of 10, all prodrug concentrations (0.5, 5, 50 μM)): > 50%
- effect of GCV on viability (HSG cells [3]; uninfected cells, 0.5, 5, 50 μM GCV): without effect
